ChEMBL document CHEMBL3885881, “DrugMatrix”

Species on record: Rattus norvegicus
Assay: DrugMatrix - Regimen: Daily Repeat
Type: toxicity, organism-based, Sprague-Dawley
Parameters: regimen Daily Repeat, gender Male, age 6-8 weeks
Conditions: in vivo, po, route oral GAVAGE, vehicle .5 % CMC; for ABSOLUTE BASOPHIL / ABSOLUTE EOSINOPHIL / ABSOLUTE LYMPHOCYTE / ABSOLUTE MONOCYTE / ABSOLUTE SEGMENTED NEUTROPHIL / BASOPHIL / EOSINOPHIL / ERYTHROCYTE COUNT / HEMATOCRIT / HEMOGLOBIN / LEUKOCYTE COUNT / LYMPHOCYTE / MEAN CORPUSCULAR HEMOGLOBIN / MEAN CORPUSCULAR HEMOGLOBIN CONCENTRATION / MEAN CORPUSCULAR VOLUME / MONOCYTE / NEUTROPHIL / NUCLEATED RED BLOOD CELLS / PLATELET COUNT: tissue Blood; for ALANINE AMINOTRANSFERASE / ALBUMIN / ALKALINE PHOSPHATASE / ASPARTATE AMINOTRANSFERASE / BLOOD UREA NITROGEN / CARBON DIOXIDE / CHLORIDE / CHOLESTEROL / CREATINE PHOSPHOKINASE / CREATININE / GLUCOSE / LACTATE DEHYDROGENASE / LIPASE / PHOSPHORUS / POTASSIUM / SODIUM / TOTAL BILIRUBIN / TOTAL PROTEIN / URIC ACID: tissue Plasma
[1] = 2500 mg/kg, 120 h, dose level High, time 5 day
[2] = […], 72 h, dose 5.4 mg/Kg, dose level Low, time 3 day
[3] = […], 120 h, dose 5.4 mg/Kg, dose level Low, time 5 day

CN1CCC[C@@H]1CCO[C@](C)(c1ccccc1)c1ccc(Cl)cc1 [CLEMASTINE]
ABSOLUTE BASOPHIL [1]: 0 CELLS/uL
ABSOLUTE EOSINOPHIL [1]: 0 CELLS/uL
ABSOLUTE LYMPHOCYTE [1]: 7767.5 CELLS/uL
ABSOLUTE MONOCYTE [1]: 575 CELLS/uL
ABSOLUTE SEGMENTED NEUTROPHIL [1]: 8407.5 CELLS/uL
BASOPHIL [1]: 0%
EOSINOPHIL [1]: 0%
ERYTHROCYTE COUNT [1]: 7.67 x10E6/uL
HEMATOCRIT [1]: 45.5%
HEMOGLOBIN [1]: 18 G/DL
LEUKOCYTE COUNT [1]: 16.75 x10E3/uL
LYMPHOCYTE [1]: 45.5%
MEAN CORPUSCULAR HEMOGLOBIN [1]: 23.5 pg
MEAN CORPUSCULAR HEMOGLOBIN CONCENTRATION [1]: 39.55 G/DL
MEAN CORPUSCULAR VOLUME [1]: 59.4 fL
MONOCYTE [1]: 3.5%
NEUTROPHIL [1]: 51%
NUCLEATED RED BLOOD CELLS [1]: 0 /100WBC
PLATELET COUNT [1]: 1417 x10E3/uL
ALANINE AMINOTRANSFERASE [1]: 189 u/L
ALBUMIN [1]: 3.45 G/DL
ALKALINE PHOSPHATASE [1]: 274 u/L
ASPARTATE AMINOTRANSFERASE [1]: 822.5 u/L
BLOOD UREA NITROGEN [1]: 37 mg/dL
CARBON DIOXIDE [1]: 21.5 mmol/L
CHLORIDE [1]: 84 MEQ/L
CHOLESTEROL [1]: 24 mg/dL
CREATINE PHOSPHOKINASE [1]: 1389.5 u/L
CREATININE [1]: 0.24 mg/dL
GLUCOSE [1]: 68.5 mg/dL
LACTATE DEHYDROGENASE [1]: 1904 u/L
LIPASE [1]: 11 u/L
PHOSPHORUS [1]: 22.25 mg/dL
POTASSIUM [1]: 6.91 MEQ/L
SODIUM [1]: 139.35 MEQ/L
TOTAL BILIRUBIN [1]: 0.25 mg/dL
TOTAL PROTEIN [1]: 5.3 G/DL
URIC ACID [1]: 6.55 mg/dL
ABSOLUTE BASOPHIL [2]: 0 CELLS/uL
ABSOLUTE EOSINOPHIL [2]: 41.67 CELLS/uL
ABSOLUTE LYMPHOCYTE [2]: 12326.67 CELLS/uL
ABSOLUTE MONOCYTE [2]: 80.67 CELLS/uL
ABSOLUTE SEGMENTED NEUTROPHIL [2]: 1517.67 CELLS/uL
BASOPHIL [2]: 0%
EOSINOPHIL [2]: 0.33%
ERYTHROCYTE COUNT [2]: 5.26 x10E6/uL
HEMATOCRIT [2]: 33.9%
HEMOGLOBIN [2]: 13.3 G/DL
LEUKOCYTE COUNT [2]: 13.97 x10E3/uL
LYMPHOCYTE [2]: 88%
MEAN CORPUSCULAR HEMOGLOBIN [2]: 25.3 pg
MEAN CORPUSCULAR HEMOGLOBIN CONCENTRATION [2]: 39.23 G/DL
MEAN CORPUSCULAR VOLUME [2]: 64.53 fL
MONOCYTE [2]: 0.67%
NEUTROPHIL [2]: 11%
NUCLEATED RED BLOOD CELLS [2]: 0 /100WBC
PLATELET COUNT [2]: 1091.33 x10E3/uL
ALANINE AMINOTRANSFERASE [2]: 56 u/L
ALBUMIN [2]: 4.07 G/DL
ALKALINE PHOSPHATASE [2]: 313.67 u/L
ASPARTATE AMINOTRANSFERASE [2]: 78.33 u/L
BLOOD UREA NITROGEN [2]: 16 mg/dL
CARBON DIOXIDE [2]: 30 mmol/L
CHLORIDE [2]: 100.33 MEQ/L
CHOLESTEROL [2]: 87 mg/dL
CREATINE PHOSPHOKINASE [2]: 239.33 u/L
CREATININE [2]: 0.19 mg/dL
GLUCOSE [2]: 158.67 mg/dL
LACTATE DEHYDROGENASE [2]: 247.33 u/L
LIPASE [2]: 9.33 u/L
PHOSPHORUS [2]: 11.17 mg/dL
POTASSIUM [2]: 5.9 MEQ/L
SODIUM [2]: 141.47 MEQ/L
TOTAL BILIRUBIN [2]: 0.2 mg/dL
TOTAL PROTEIN [2]: 5.63 G/DL
URIC ACID [2]: 1.23 mg/dL
ABSOLUTE BASOPHIL [3]: 0 CELLS/uL
ABSOLUTE EOSINOPHIL [3]: 52.33 CELLS/uL
ABSOLUTE LYMPHOCYTE [3]: 12918 CELLS/uL
ABSOLUTE MONOCYTE [3]: 156.33 CELLS/uL
ABSOLUTE SEGMENTED NEUTROPHIL [3]: 1306.67 CELLS/uL
BASOPHIL [3]: 0%
EOSINOPHIL [3]: 0.33%
ERYTHROCYTE COUNT [3]: 5.68 x10E6/uL
HEMATOCRIT [3]: 35.67%
HEMOGLOBIN [3]: 14.13 G/DL
LEUKOCYTE COUNT [3]: 14.43 x10E3/uL
LYMPHOCYTE [3]: 89.33%
MEAN CORPUSCULAR HEMOGLOBIN [3]: 24.93 pg
MEAN CORPUSCULAR HEMOGLOBIN CONCENTRATION [3]: 39.67 G/DL
MEAN CORPUSCULAR VOLUME [3]: 62.87 fL
MONOCYTE [3]: 1.33%
NEUTROPHIL [3]: 9%
NUCLEATED RED BLOOD CELLS [3]: 0.33 /100WBC
PLATELET COUNT [3]: 866 x10E3/uL
ALANINE AMINOTRANSFERASE [3]: 51 u/L
ALBUMIN [3]: 4.57 G/DL
ALKALINE PHOSPHATASE [3]: 318.67 u/L
ASPARTATE AMINOTRANSFERASE [3]: 79.67 u/L
BLOOD UREA NITROGEN [3]: 14 mg/dL
CARBON DIOXIDE [3]: 30.33 mmol/L
CHLORIDE [3]: 101.33 MEQ/L
CHOLESTEROL [3]: 68.33 mg/dL
CREATINE PHOSPHOKINASE [3]: 200.33 u/L
CREATININE [3]: 0.16 mg/dL
GLUCOSE [3]: 155.33 mg/dL
LACTATE DEHYDROGENASE [3]: 118.67 u/L
LIPASE [3]: 10 u/L
PHOSPHORUS [3]: 10.77 mg/dL
POTASSIUM [3]: 6.13 MEQ/L
SODIUM [3]: 141.6 MEQ/L
TOTAL BILIRUBIN [3]: 0.2 mg/dL
TOTAL PROTEIN [3]: 6.3 G/DL
URIC ACID [3]: 1.47 mg/dL
